Data published in the NIST ThermoML archive (doi:10.1016/j.jct.2013.12.025).

Assay: refractive index (Na D-line) (dimensionless); xn = mol fraction of the nth substance listed
Details: 101 kPa, Liquid, Standard Abbe refractometry

C=C[Si](C)(C)O[Si](C)(C)C=C [1,3-diethenyl-1,1,3,3-tetramethyldisiloxane] + Fc1ccccc1
refractive index
Details	283.15 K	288.15 K	293.15 K	298.15 K	303.15 K
x1 = 0.05	1.46591	1.46302	1.4601	1.45724	1.45427
x1 = 0.1	1.46088	1.45799	1.4551	1.45222	1.44927
x1 = 0.15	1.45637	1.45349	1.45063	1.44775	1.44482
x1 = 0.1993	1.45237	1.44949	1.44664	1.44378	1.44083
x1 = 0.25	1.44858	1.44572	1.44288	1.44002	1.43708
x1 = 0.2999	1.44521	1.44238	1.43954	1.43671	1.43382
x1 = 0.35	1.44212	1.43928	1.43649	1.43366	1.43075
x1 = 0.4	1.43929	1.43648	1.43368	1.43086	1.42798
x1 = 0.45	1.43671	1.4339	1.43109	1.42829	1.42546
x1 = 0.5	1.43427	1.43147	1.42871	1.42592	1.42309
x1 = 0.5501	1.43205	1.42925	1.42651	1.42374	1.42092
x1 = 0.6	1.42996	1.42721	1.42446	1.42171	1.41891
x1 = 0.6501	1.42804	1.4253	1.42257	1.41982	1.41705
x1 = 0.7	1.42627	1.42353	1.4208	1.41808	1.41532
x1 = 0.7501	1.42458	1.42185	1.41913	1.41642	1.41369
x1 = 0.8	1.42302	1.42031	1.41762	1.41493	1.41219
x1 = 0.85	1.42152	1.41883	1.41615	1.41349	1.4108
x1 = 0.8998	1.42015	1.41747	1.4148	1.41213	1.40945
x1 = 0.95	1.41882	1.41617	1.41352	1.41087	1.40819
x1 = 1	1.41758	1.41493	1.41227	1.40963	1.40695

C=C[Si](C)(C)O[Si](C)(C)C=C [1,3-diethenyl-1,1,3,3-tetramethyldisiloxane] + O=[N+]([O-])c1ccccc1
refractive index
Details	283.15 K	288.15 K	293.15 K	298.15 K	303.15 K
x1 = 0.05	1.54466	1.54219	1.5397	1.53724	1.5348
x1 = 0.1	1.53289	1.53042	1.52796	1.52547	1.52302
x1 = 0.15	1.52202	1.51955	1.51705	1.51459	1.51211
x1 = 0.2	1.51193	1.50945	1.50694	1.50445	1.50196
x1 = 0.25	1.50266	1.50017	1.49764	1.49511	1.49265
x1 = 0.3	1.49408	1.49154	1.48901	1.48643	1.48396
x1 = 0.3508	1.48595	1.48341	1.48085	1.47825	1.47577
x1 = 0.4001	1.47862	1.47608	1.47352	1.47089	1.46841
x1 = 0.4501	1.4717	1.46914	1.46659	1.46395	1.46144
x1 = 0.4999	1.46522	1.46267	1.46009	1.45748	1.45493
x1 = 0.55	1.45917	1.45661	1.45401	1.45139	1.44883
x1 = 0.6001	1.45344	1.45088	1.4483	1.44568	1.44308
x1 = 0.6487	1.44824	1.44565	1.44307	1.44043	1.43783
x1 = 0.6999	1.44306	1.44044	1.43784	1.43521	1.43261
x1 = 0.7499	1.43821	1.43565	1.43306	1.43043	1.42778
x1 = 0.7999	1.4337	1.43109	1.42845	1.42584	1.42318
x1 = 0.8497	1.42937	1.42677	1.42414	1.42152	1.41887
x1 = 0.9	1.42527	1.42262	1.41999	1.41736	1.41471
x1 = 0.9499	1.42134	1.4187	1.41606	1.41343	1.41079
x1 = 1	1.4176	1.41495	1.41227	1.40965	1.407

C=C[Si](C)(C)O[Si](C)(C)C=C [1,3-diethenyl-1,1,3,3-tetramethyldisiloxane] + CCc1ccccc1
refractive index
Details	283.15 K	288.15 K	293.15 K	298.15 K	303.15 K
x1 = 0.0501	1.49399	1.49133	1.48864	1.48591	1.48318
x1 = 0.1001	1.48737	1.48473	1.48204	1.47931	1.4766
x1 = 0.1499	1.48124	1.47856	1.47587	1.47319	1.47044
x1 = 0.2001	1.47548	1.47282	1.47013	1.46745	1.46472
x1 = 0.25	1.47011	1.46746	1.46476	1.46206	1.45934
x1 = 0.3	1.46506	1.46243	1.45974	1.45705	1.45432
x1 = 0.3499	1.46032	1.45769	1.45502	1.45233	1.4496
x1 = 0.4	1.45589	1.45324	1.45057	1.44786	1.44516
x1 = 0.4501	1.45171	1.44905	1.44639	1.44368	1.44097
x1 = 0.5	1.44774	1.44509	1.44243	1.43975	1.43705
x1 = 0.5503	1.44396	1.44135	1.43866	1.43599	1.43331
x1 = 0.6	1.44044	1.43779	1.43514	1.43246	1.42979
x1 = 0.6501	1.43706	1.43444	1.43177	1.42909	1.42643
x1 = 0.6999	1.43392	1.43128	1.4286	1.42594	1.42325
x1 = 0.7502	1.43084	1.4282	1.42555	1.42288	1.42022
x1 = 0.8001	1.42794	1.42531	1.42264	1.41999	1.41732
x1 = 0.85	1.42518	1.42258	1.41991	1.41723	1.41458
x1 = 0.8999	1.42257	1.41995	1.41729	1.41464	1.41198
x1 = 0.9498	1.42013	1.41752	1.41486	1.41219	1.40954
x1 = 1	1.41762	1.41498	1.41232	1.40969	1.40704

C=C[Si](C)(C)O[Si](C)(C)C=C [1,3-diethenyl-1,1,3,3-tetramethyldisiloxane] + Clc1ccccc1
refractive index
Details	283.15 K	288.15 K	293.15 K	298.15 K	303.15 K
x1 = 0.05	1.51909	1.51642	1.51366	1.51088	1.50802
x1 = 0.0998	1.50933	1.5066	1.50385	1.50103	1.49821
x1 = 0.15	1.50029	1.49759	1.49487	1.492	1.48923
x1 = 0.1996	1.49216	1.48946	1.48671	1.48389	1.48103
x1 = 0.25	1.4846	1.48187	1.47913	1.47637	1.47349
x1 = 0.2999	1.47766	1.47495	1.47223	1.46943	1.46663
x1 = 0.35	1.47122	1.46854	1.46582	1.46303	1.46019
x1 = 0.3999	1.46527	1.46262	1.4599	1.45712	1.45432
x1 = 0.4496	1.45981	1.45712	1.45441	1.45167	1.44883
x1 = 0.4999	1.45464	1.45197	1.44926	1.4465	1.4437
x1 = 0.5499	1.44985	1.44716	1.44446	1.4417	1.43891
x1 = 0.6	1.44533	1.44268	1.43999	1.43722	1.43446
x1 = 0.6469	1.44138	1.4387	1.43603	1.43329	1.43053
x1 = 0.6998	1.43721	1.43455	1.43185	1.42911	1.42638
x1 = 0.7499	1.43345	1.4308	1.42812	1.42542	1.4227
x1 = 0.7997	1.42994	1.42729	1.42463	1.42193	1.41923
x1 = 0.8499	1.42661	1.42395	1.42129	1.41862	1.41593
x1 = 0.8996	1.4235	1.42083	1.41817	1.4155	1.41283
x1 = 0.9497	1.4205	1.41785	1.4152	1.41257	1.40991
x1 = 1	1.41767	1.415	1.41237	1.40973	1.40708
